From patent US12180187B2, “1-phenyl-5-azinylpyrazolyl-3-oxyalkyl acids and their use for controlling unwanted plant growth” (BAYER AKTIENGESELLSCHAFT, priority 2019, dated 2024)

What was measured:
ECHCG [1] = test: Post-emergence action against ECHCG, 1.28 kg/ha; type: in vivo, Echinochloa crus-galli; details: dosage 1280 g/ha, visual rating about 3 weeks after treatment vs untreated controls
Outline: (§1)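 Visual rating against untreated plants about 3 weeks after spraying gives % activity, where 0% means like controls and 100% means plants died. Plants were treated post-emergence at the one-leaf stage with compound formulated as wettable powder or emulsion concentrate, applied at 600 L water/ha plus 0.5% additive.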

AMARE [2] = test: Post-emergence action against AMARE, 1.28 kg/ha; type: in vivo, Amaranthus retroflexus; details: dosage 1280 g/ha, visual rating about 3 weeks after treatment vs untreated controls (100% = plants died)
Outline: as §1

ECHCG [3] = test: Pre-emergence action against ECHCG, 1280 g/ha; type: in vivo, Echinochloa crus-galli; details: visual scoring after about 3 weeks vs untreated controls, 100% = plants have died, 0% = like control plants
Outline: (§2)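 In greenhouse pots of sandy loam, sown weed seeds were covered with soil and treated pre-emergence with the compound in water (600 L/ha, 0.5% additive). Efficacy was assessed visually as percent of untreated control after about 3 weeks.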

AMARE [4] = test: Pre-emergence action against AMARE, 1280 g/ha; type: in vivo, Amaranthus retroflexus; details: scored visually after about 3 weeks vs untreated controls (100% = plants have died)
Outline: as §2

SETVI [5] = test: Post-emergence action against SETVI, 1.28 kg/ha; type: in vivo, Setaria viridis; details: dosage 1280 g/ha, visual rating about 3 weeks after treatment vs untreated controls
Outline: as §1

ECHGC = test: Pre-emergence action at 320 g/ha against ECHGC; type: in vivo, Echinochloa crus-galli; details: visual scoring after about 3 weeks vs untreated controls
Outline: (§3)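 Visual scoring in percent against untreated controls, about 3 weeks after treatment, where 100% means dead plants and 0% means no difference. Compounds were applied as aqueous suspension or emulsion (WP or EC, plus 0.5% additive) onto soil covering freshly sown seeds, at 600 l/ha water.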

SETVI [6] = test: Pre-emergence action at 320 g/ha against SETVI; type: in vivo, Setaria viridis; details: visual scoring after about 3 weeks vs untreated controls
Outline: as §3

DIGSA [7] = test: Post-emergence action against DIGSA, 1.28 kg/ha; type: in vivo, Digitaria sanguinalis; details: dosage 1280 g/ha, visual rating about 3 weeks after treatment vs untreated controls
Outline: as §1

ALOMY [8] = test: Pre-emergence action against ALOMY, 1280 g/ha; type: in vivo, Alopecurus myosuroides; details: visual scoring after about 3 weeks vs untreated controls, 100% = plants have died, 0% = like control plants
Outline: as §2

AVEFA = test: Pre-emergence action at 320 g/ha against AVEFA; type: in vivo; details: visual scoring after about 3 weeks vs untreated controls
Outline: as §3

VERPE [9] = test: Post-emergence action against VERPE, 1.28 kg/ha; type: in vivo, Veronica persica; details: dosage 1280 g/ha, visual rating about 3 weeks after treatment vs untreated controls (100% = plants died)
Outline: as §1

ALOMY [10] = test: Post-emergence action against ALOMY, 1.28 kg/ha; type: in vivo, Alopecurus myosuroides; details: dosage 1280 g/ha, visual rating about 3 weeks after treatment vs untreated controls
Outline: as §1

ABUTH [11] = test: Pre-emergence action against ABUTH, 1280 g/ha; type: in vivo, Abutilon theophrasti; details: scored visually after about 3 weeks vs untreated controls (100% = plants have died)
Outline: as §2

VIOTR = test: Pre-emergence action at 320 g/ha against VIOTR; type: in vivo, Viola tricolor; details: dosage 320 g/ha
Outline: as §3

MATIN [12] = test: Pre-emergence action against MATIN, 1280 g/ha; type: in vivo, Tripleurospermum inodorum (Matricaria inodora); details: scored visually after about 3 weeks vs untreated controls (100% = plants have died)
Outline: as §2

POAAN [13] = test: Pre-emergence action against POAAN, 1280 g/ha; type: in vivo, Poa annua; details: visual scoring after about 3 weeks vs untreated controls, 100% = plants have died, 0% = like control plants
Outline: as §2

STEME [14] = test: Pre-emergence action against STEME, 1280 g/ha; type: in vivo, Stellaria media; details: scored visually after about 3 weeks vs untreated controls (100% = plants have died)
Outline: as §2

ABUTH [15] = test: Post-emergence action against ABUTH, 1.28 kg/ha; type: in vivo, Abutilon theophrasti; details: dosage 1280 g/ha, visual rating about 3 weeks after treatment vs untreated controls (100% = plants died)
Outline: as §1

DIGSA [16] = test: Pre-emergence action at 320 g/ha against DIGSA; type: in vivo, Digitaria sanguinalis; details: visual scoring after about 3 weeks vs untreated controls
Outline: as §3

ALOMY [17] = test: Pre-emergence action at 320 g/ha against ALOMY; type: in vivo, Alopecurus myosuroides; details: scored visually after about 3 weeks vs untreated controls (100% = plants have died)
Outline: as §3

LOLRI [18] = test: Pre-emergence action against LOLRI, 1280 g/ha; type: in vivo, Lolium rigidum; details: visual scoring after about 3 weeks vs untreated controls, 100% = plants have died, 0% = like control plants
Outline: as §2

MATIN [19] = test: Pre-emergence action at 320 g/ha against MATIN; type: in vivo, Tripleurospermum inodorum (Matricaria inodora); details: visual scoring after about 3 weeks vs untreated controls
Outline: as §3

KCHSC = test: Pre-emergence action against KCHSC, 1280 g/ha; type: in vivo, Bassia scoparia; details: scored visually after about 3 weeks vs untreated controls (100% = plants have died)
Outline: as §2

MATIN [20] = test: Post-emergence action against MATIN, 1.28 kg/ha; type: in vivo, Tripleurospermum inodorum (Matricaria inodora); details: dosage 1280 g/ha, visual rating about 3 weeks after treatment vs untreated controls (100% = plants died)
Outline: as §1

DIGSA [21] = test: Pre-emergence action against DIGSA, 1280 g/ha; type: in vivo, Digitaria sanguinalis; details: visual scoring after about 3 weeks vs untreated controls, 100% = plants have died, 0% = like control plants
Outline: as §2

LOLRI [22] = test: Post-emergence action against LOLRI, 1.28 kg/ha; type: in vivo, Lolium rigidum; details: dosage 1280 g/ha, visual rating about 3 weeks after treatment vs untreated controls
Outline: as §1

POLCO = test: Pre-emergence action at 320 g/ha against POLCO; type: in vivo, Fallopia convolvulus (Polygonum convolvulus); details: visual scoring after about 3 weeks vs untreated controls
Outline: as §3

LOLRI [23] = test: Pre-emergence action at 320 g/ha against LOLRI; type: in vivo, Lolium rigidum; details: visual scoring after about 3 weeks vs untreated controls
Outline: as §3

ABUTH [24] = test: Pre-emergence action at 320 g/ha against ABUTH; type: in vivo, Abutilon theophrasti; details: greenhouse, scored visually after about 3 weeks vs untreated controls, 100% = plants have died, 0% = like control plants
Source text: b) Seeds of monocotyledonous and dicotyledonous weed plants and crop plants are placed in plastic or organic planting pots and covered with soil. The compounds of the invention, formulated in the form of wettable powders (WP) or as emulsion concentrates (EC), are then applied onto the surface of the covering soil as aqueous suspension or emulsion with addition of 0.5% additive at a water application rate of 600 l/ha (converted). After the treatment, the pots are placed in a greenhouse and kept under good growth conditions for the trial plants. After about 3 weeks, the effect of the preparations is scored visually in comparison with untreated controls as percentages. For example, 100% activity=the plants have died, 0% activity=like control plants. Tables 13 to 26 below show the effects of selected compounds of the general formula (I) on various harmful plants and at an application rate corresponding to 320 g/ha, which were obtained by the experimental procedure mentioned above.

POAAN [25] = test: Post-emergence action against POAAN, 1.28 kg/ha; type: in vivo, Poa annua; details: dosage 1280 g/ha, visual rating about 3 weeks after treatment vs untreated controls
Outline: as §1

STEME [26] = test: Post-emergence action against STEME, 1.28 kg/ha; type: in vivo, Stellaria media; details: dosage 1280 g/ha, visual rating about 3 weeks after treatment vs untreated controls (100% = plants died)
Outline: as §1

VERPE [27] = test: Pre-emergence action at 320 g/ha against VERPE; type: in vivo, Veronica persica; details: visual scoring after about 3 weeks vs untreated controls
Outline: as §3

PHBPU = test: Pre-emergence action at 320 g/ha against PHBPU; type: in vivo; details: visual scoring after about 3 weeks vs untreated controls
Outline: as §3

AMARE [28] = test: Pre-emergence action at 320 g/ha against AMARE; type: in vivo, Amaranthus retroflexus; details: visual scoring after about 3 weeks vs untreated controls
Outline: as §3

SETVI [29] = test: Pre-emergence action against SETVI, 1280 g/ha; type: in vivo, Setaria viridis; details: visual scoring after about 3 weeks vs untreated controls, 100% = plants have died, 0% = like control plants
Outline: as §2

VERPE [30] = test: Pre-emergence action against VERPE, 1280 g/ha; type: in vivo, Veronica persica; details: scored visually after about 3 weeks vs untreated controls (100% = plants have died)
Outline: as §2

## N#CCCOC(=O)COc1nn(-c2ccccc2F)c(-c2ccc(F)nc2)c1Br [VII-104]
ECHCG [1]
  Post-emergence action against ECHCG: 100%
AMARE [2]
  Post-emergence action against AMARE: 90%
ECHCG [3]
  Pre-emergence action against ECHCG: 100%
AMARE [4]
  Pre-emergence action against AMARE: 100%
SETVI [5]
  Post-emergence action against SETVI: 90%
ECHGC
  Pre-emergence action against ECHGC in %: 100%
SETVI [6]
  Pre-emergence action against SETVI in %: 100%
DIGSA [7]
  Post-emergence action against DIGSA: 100%
ALOMY [8]
  Pre-emergence action against ALOMY: 100%
AVEFA
  Pre-emergence action against AVEFA in %: 90%
VERPE [9]
  Post-emergence action against VERPE: 90%
ALOMY [10]
  Post-emergence action against ALOMY: 100%
ABUTH [11]
  Pre-emergence action against ABUTH: 90%
VIOTR
  Pre-emergence action against VIOTR in %: 100%
MATIN [12]
  Pre-emergence action against MATIN: 100%
POAAN [13]
  Pre-emergence action against POAAN: 100%
STEME [14]
  Pre-emergence action against STEME: 100%
ABUTH [15]
  Post-emergence action against ABUTH: 90%
DIGSA [16]
  Pre-emergence action against DIGSA in %: 100%
ALOMY [17]
  Pre-emergence action at 320 g/ha against ALOMY in %: 100%
LOLRI [18]
  Pre-emergence action against LOLRI: 100%
MATIN [19]
  Pre-emergence action against MATIN in %: 100%
KCHSC
  Pre-emergence action against KCHSC: 90%
MATIN [20]
  Post-emergence action against MATIN: 100%
DIGSA [21]
  Pre-emergence action against DIGSA: 100%
LOLRI [22]
  Post-emergence action against LOLRI: 100%
POLCO
  Pre-emergence action against POLCO in %: 90%
LOLRI [23]
  Pre-emergence action against LOLRI in %: 100%
ABUTH [24]
  Pre-emergence action at 320 g/ha against ABUTH in %: 80%
POAAN [25]
  Post-emergence action against POAAN: 100%
STEME [26]
  Post-emergence action against STEME: 90%
VERPE [27]
  Pre-emergence action against VERPE in %: 100%
PHBPU
  Pre-emergence action against PHBPU in %: 100%
AMARE [28]
  Pre-emergence action against AMARE in %: 100%
SETVI [29]
  Pre-emergence action against SETVI: 100%
VERPE [30]
  Pre-emergence action against VERPE: 100%
